Source: patent publication US20220235057A1, “CYCLIC FORMYL AND CYCLIC KETONE COMPOUNDS, PREPARATION METHOD THEREFOR, AND PHARMACEUTICAL USE” (priority 2019, published 2022)

Experiments:
Format in all cases: cell-based
[1] = system: Usutu virus (USUV); experiment: anti-Usutu virus activity (inhibition rate); conditions: for inhibition at 11 µM / inhibition at 33 µM: Usutu virus; for inhibition at 33 µM: Drug concentration 33 μM
[2] = system: Zika virus (ZIKV); experiment: anti-Zika virus activity (inhibition rate); conditions: for inhibition at 11 µM / inhibition at 33 µM: Zika virus; for inhibition at 33 µM: Drug concentration 33 μM
[3] = system: drug resistant strains of Acinetobacter baumannii; experiment: anti-drug resistant strains of Acinetobacter baumannii (inhibition zone)
[4] = resistant strain of Acinetobacter baumannii no. 16
[5] = resistant strain of Acinetobacter baumannii no. 17
[6] = resistant strain of Acinetobacter baumannii no. 18
[7] = resistant strain of Acinetobacter baumannii no. 19
[8] = resistant strain of Acinetobacter baumannii no. 20

Row | SMILES | inhibition at 11 µM ([1]; Drug concentration 11 μM) | inhibition at 33 µM [1] | inhibition at 11 µM ([2]; Drug concentration 11 μM) | inhibition at 33 µM [2] | inhibition zone, diameter [3, 4] | inhibition zone, diameter [3, 5] | inhibition zone, diameter [3, 6] | inhibition zone, diameter [3, 7] | inhibition zone, diameter [3, 8] | Anti-USUV activity (inhibition rate) ([1]; Drug concentration 11 μM) | Anti-ZIKV activity (inhibition rate) ([2]; Drug concentration 11 μM)
1 | C=C1CC[C@@H]2[C@]3(C)COC(C)(C)O[C@@H]3CC[C@@]2(C)[C@@H]1C[C@H]1N(Nc2ccc([N+](=O)[O-])cc2)C(=O)[C@@H]2Cc3ccccc3N21 [ZDL-43] | > 100% | > 100% | > 100% | > 100% | – | – | – | – | – | – | –
2 | O=C(NNc1ccc(F)cc1)c1ccc2cc[nH]c2c1 [ZBM-24] | – | – | – | – | 38 mm | 68 mm | 6 mm | 50 mm | 68 mm | – | –
3 | COc1ccc([C@@H]2N(Nc3ccccc3)C(=O)C3CCCCN32)cc1O (stereo partly shown) [ZKD-19A] | – | – | – | – | 68 mm | 68 mm | 68 mm | 68 mm | 68 mm | – | –
4 | O=C1C2CCCCN2C(c2ccc(B(O)O)cc2)N1Nc1ccccc1 (stereo not shown) [ZKD-10A] | – | – | – | – | 56 mm | 53 mm | 55 mm | 48 mm | 68 mm | – | –
5 | COc1ccc(CC2N(Nc3ccccc3)C(=O)C3CCCCN32)cc1OC (single isomer, unassigned) [ZKD-13A] | – | – | – | – | 68 mm | 68 mm | 68 mm | 64 mm | 68 mm | – | –
6 | CC(C)(C)[Si](C)(C)Oc1ccc(C2N(Cc3ccccc3)C(=O)C3CCc4ccccc4N32)cc1 (stereo not shown) [ZXD-241B] | < 0% | > 100% | < 0% | > 100% | – | – | – | – | – | – | –
7 | O=C1C2CCCC2C(c2ccc(Cl)cc2)N1c1ccccc1 (stereo not shown) [ZDL-62] | < 0% | > 100% | < 0% | 0 to 100% | – | – | – | – | – | – | –
8 | O=C1C2CCc3ccccc3N2C(c2cc3ccccc3s2)N1Nc1ccccc1 (stereo not shown) [ZXD-178A] | – | – | – | – | – | – | – | – | – | + (+: Partial suppression) | +++ (+++: Complete suppression)
9 | Cc1cnc2c(S(=O)(=O)N3CCCCC3C(=O)NNc3ccc(F)cc3)cccc2c1 (stereo not shown) [ZKD-21] | – | – | – | – | 60 mm | 48 mm | 53 mm | 64 mm | 68 mm | – | –
10 | O=C(Nc1ccc([N+](=O)[O-])cc1)C1CCc2ccccc2N1 (stereo not shown) [ZXD-53] | < 0% | < 0% | < 0% | 0 to 100% | – | – | – | – | – | – | –
11 | O=C1[C@@H]2Cc3ccccc3N2[C@@H](c2ccc(O)cc2)N1NS(=O)(=O)c1ccc([N+](=O)[O-])cc1 [ZDL-39] | < 0% | < 0% | < 0% | 0 to 100% | – | – | – | – | – | – | –
12 | O=C1C2CCCCN2C(c2ccc(O)cc2)N1Nc1ccccc1 (single isomer, unassigned) [ZKD-4A] | – | – | – | – | 58 mm | 40 mm | 66 mm | 68 mm | 62 mm | – | –
13 | O=C(NNc1ccc(F)cc1)[C@@H]1Cc2ccccc2CN1 [ZSD-54] | – | – | – | – | 50 mm | 58 mm | 47 mm | 68 mm | 68 mm | – | –
14 | O=C1C2CCCCN2[C@H](c2ccco2)N1Nc1ccccc1 (stereo partly shown) [ZKD-5A] | – | – | – | – | 68 mm | 68 mm | 68 mm | 68 mm | 68 mm | – | –
15 | COc1cc(CC2N(Nc3ccccc3)C(=O)C3CCCCN32)ccc1O (single isomer, unassigned) [ZKD-14B] | – | – | – | – | 54 mm | 53 mm | 34 mm | 68 mm | 68 mm | – | –
16 | O=C(NNc1ccc(F)cc1)C1CCc2ccccc2N1 (stereo not shown) [ZXD-F] | – | – | – | – | 65 mm | 68 mm | 68 mm | 68 mm | 68 mm | – | –
17 | O=C(NNc1ccc(F)cc1)C1CCCCN1 (stereo not shown) [ZKD-17] | – | – | – | – | 67 mm | 68 mm | 36 mm | 68 mm | 68 mm | – | –
18 | COc1ccc([C@H]2N(Nc3ccccc3)C(=O)C3CCCCN32)cc1OC (stereo partly shown) [ZKD-6B] | – | – | – | – | 16 mm | 17 mm | 16 mm | 20 mm | 40 mm | – | –
19 | COc1cc(CC2N(Nc3ccccc3)C(=O)C3CCCCN32)ccc1O (single isomer, unassigned) [ZKD-14A] | – | – | – | – | 68 mm | 68 mm | 45 mm | 64 mm | 68 mm | – | –

Row | SMILES | inhibition at 11 µM ([1]; Drug concentration 11 μM) | inhibition at 33 µM [1] | inhibition at 11 µM ([2]; Drug concentration 11 μM) | inhibition at 33 µM [2] | inhibition zone, diameter [3, 4] | inhibition zone, diameter [3, 5] | inhibition zone, diameter [3, 6] | inhibition zone, diameter [3, 7] | inhibition zone, diameter [3, 8] | Anti-USUV activity (inhibition rate) ([1]; Drug concentration 11 μM) | Anti-ZIKV activity (inhibition rate) ([2]; Drug concentration 11 μM)
20 | O=C1C2CCc3ccccc3N2C(c2ccc(CO)cc2)N1Nc1ccccc1 (stereo not shown) [ZXD-157B] | > 100% | – | – | – | – | – | – | – | – | – | –
21 | O=C1C2CCCCN2[C@@H](c2ccco2)N1Nc1ccccc1 (stereo partly shown) [ZKD-5B] | – | – | – | – | 68 mm | 48 mm | 48 mm | 55 mm | 68 mm | – | –
22 | COc1ccc(CC2N(Nc3ccccc3)C(=O)C3CCCCN32)cc1O (single isomer, unassigned) [ZKD-12A] | – | – | – | – | 65 mm | 68 mm | 68 mm | 58 mm | 68 mm | – | –
23 | COc1cc([C@@H]2N(Nc3ccccc3)C(=O)C3CCCCN32)ccc1O (stereo partly shown) [ZKD-18A] | – | – | – | – | 68 mm | 68 mm | 68 mm | 68 mm | 68 mm | – | –
24 | CC1(C)OB(c2ccc([C@@H]3N(Nc4ccccc4)C(=O)C4CCCCN43)cc2)OC1(C)C (stereo partly shown) [ZKD-15A] | – | – | – | – | 46 mm | 50 mm | 40 mm | 68 mm | 68 mm | – | –
25 | O=C(NNc1ccc([N+](=O)[O-])cc1)[C@@H]1Cc2ccccc2CN1 [ZSD-15] | – | – | – | – | 44 mm | 40 mm | 68 mm | 68 mm | 40 mm | – | –
26 | Cn1cnc(C(=O)NNc2ccc(F)cc2)c1 [ZBM-29] | – | – | – | – | 51 mm | 68 mm | 48 mm | 68 mm | 68 mm | – | –
27 | COc1ccc(CC2N(Nc3ccccc3)C(=O)C3CCCCN32)cc1O (single isomer, unassigned) [ZKD-12B] | – | – | – | – | 68 mm | 68 mm | 55 mm | 60 mm | 68 mm | – | –
28 | O=C1C2CCCCN2[C@@H](c2ccc(B(O)O)cc2)N1Nc1ccccc1 (stereo partly shown) [ZKD-10B] | – | – | – | – | 39 mm | 48 mm | 45 mm | 46 mm | 54 mm | – | –
29 | Cn1cncc1C(=O)NNc1ccc(F)cc1 [ZBM-30] | – | – | – | – | 45 mm | 68 mm | 45 mm | 68 mm | 68 mm | – | –
30 | COc1ccc(CC2N(Nc3ccccc3)C(=O)C3CCCCN32)cc1OC (single isomer, unassigned) [ZKD-13B] | – | – | – | – | 68 mm | 68 mm | 36 mm | 64 mm | 68 mm | – | –
31 | O=C1C2CCCCN2C(c2ccc(O)cc2)N1Nc1ccccc1 (single isomer, unassigned) [ZKD-4B] | – | – | – | – | 68 mm | 68 mm | 68 mm | 68 mm | 68 mm | – | –
32 | COc1ccc(C2N(Nc3ccccc3)C(=O)C3CCCCN32)cc1OC (stereo not shown) [ZKD-6A] | – | – | – | – | 45 mm | 43 mm | 20 mm | 25 mm | 64 mm | – | –
33 | O=C(NNc1ccc(F)cc1)c1ncc[nH]1 [ZBM-28] | – | – | – | – | 51 mm | 68 mm | 64 mm | 64 mm | 68 mm | – | –
34 | O=C(NNc1ccc(F)cc1)c1cc2ccc(Cl)cc2[nH]1 [ZBM-36] | – | – | – | – | 30 mm | 58 mm | 21 mm | 68 mm | 68 mm | – | –
35 | O=C1C(c2ccccc2)C(c2ccc(O)cc2)N2CCC[C@@H]12 (stereo partly shown) [ZXP-10] | < 0% | 0 to 100% | – | – | – | – | – | – | – | – | –
36 | COc1ccc(C2N(Nc3ccccc3)C(=O)C3CCCCN32)cc1O (stereo not shown) [ZKD-19B] | – | – | – | – | 68 mm | 68 mm | 68 mm | 68 mm | 68 mm | – | –
37 | CC1(C)OB(c2ccc([C@H]3N(Nc4ccccc4)C(=O)C4CCCCN43)cc2)OC1(C)C (stereo partly shown) [ZKD-15B] | – | – | – | – | 67 mm | 68 mm | 40 mm | 68 mm | 68 mm | – | –
38 | COc1cc(C2N(Nc3ccccc3)C(=O)C3CCCCN32)ccc1O (stereo not shown) [ZKD-18B] | – | – | – | – | 68 mm | 68 mm | 68 mm | 68 mm | 68 mm | – | –
